According to patent US9988379B2, “GPR40 receptor agonist, methods of preparing the same, and pharmaceutical compositions containing the same as an active agent” (LG CHEM, LTD., priority 2012, dated 2018):

Target: T1, human GPR40 (Homo sapiens, UniProt O14842)
T1 construct: expressed in transfected cells; host or cells: CHO-K1
Assay: Induction of Ca2+ (calcium flux assay) using human GPR40 expression cell line
Format: cell-based
Details: read-out: EC0.5
Procedure: Evaluation of the Test Compounds for Induction of Ca^2+ Using Human GPR40 Expression Cell Line
The cell line expressing human GPR40 was generated by transfection of the GPR40 expression vector into CHO-K1 cell, and used in the following calcium flux assay.
The cell line was cultured in cell-culture medium (F-12 (Invitrogen) supplemented with 10% (v/v) FBS (Fetal Bovine Serum; Invitrogen), 0.5 mg/ml Geneticin (Invitrogen) and 1% (v/v) Antibiotic-Antimycotic solution (Invitrogen)) under the condition of 5% CO2 and 37° C. For calcium flux assay, the cells were diluted with the cell-culture medium to a concentration of 5×10^5 cells/ml, and the diluted cell suspension was dispensed in amount of 100 μl/well to a 96-well transparent bottom black polystyrene cell culture plate (Corning) and then cultured for 24 hours. The following concentrations of test compounds were added to these cells, and then the changes in intracellular calcium concentration were measured by FlexStation II384 (Molecular Devices). The following solution was prepared before the measurement.
First, a buffer solution for assay was prepared for use in the manufacture of fluorescent dye solution. This buffer solution was prepared by adding 1M HEPES solution (Invitrogen) to HBSS (Hanks' Balanced Salt Solution) (Invitrogen) and then adding 1M NaOH (Nacalai Tesque) to adjust pH to 7.4. Then the fluorescent dye solution was prepared according to the manufacturer's instruction attached to Calcium 5 Assay Kit (Molecular Devices), and the final DMSO concentration was adjusted to 2%.
The fluorescent dye solution was added in an amount of 100 μl/well to supernatant of the cell culture plate cultured for 24 hours. The plate was cultured for 1 hour under the condition of 5% CO2 and 37° C. so that the fluorescent dye was inserted into the cell.
Test compounds (i.e., the compounds prepared in the Examples) dissolved in dimethyl sulfoxide (DMSO ACROS) were diluted 200-fold in the buffer solution for assay to prepare compound solutions corresponding to the respective concentrations. […] 50 μl of the prepared sample solutions was added to each well of 96-well polypropylene plates (NUNC), and thereby a compound plate was prepared. Finally, the compound plate and the cell culture plate cultured for 1 hour with the fluorescent dye were placed in FlexStation II384.
After the above pre-treatment, the change in the intracellular calcium concentration when each concentration of the test compound solutions was added at 50 μl was measured by FlexStation II^384.
Then, the relative activity values depending on the concentration of the compound were plotted using Prism 4 software (GraphPad) to calculate the EC0.5 value.

T1 sequence (O14842 whole entry): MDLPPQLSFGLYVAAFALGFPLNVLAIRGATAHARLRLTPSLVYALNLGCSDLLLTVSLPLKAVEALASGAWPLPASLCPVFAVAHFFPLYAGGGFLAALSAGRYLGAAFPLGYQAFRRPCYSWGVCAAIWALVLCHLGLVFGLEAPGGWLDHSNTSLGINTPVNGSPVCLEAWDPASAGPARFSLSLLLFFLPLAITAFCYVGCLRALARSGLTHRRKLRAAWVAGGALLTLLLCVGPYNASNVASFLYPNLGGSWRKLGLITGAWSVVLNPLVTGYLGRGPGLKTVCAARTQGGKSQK

| SMILES | EC50 |
| --- | --- |
| CC#C[C@@H](CC(=O)O)c1ccc(OCc2cccc3c2c(F)nn3C(C)C)cc1 [Example 194, (S)-3-[4-(3-fluoro-1-isopropyl-1H-indazol-4-ylmethoxy)-phenyl]-hex-4-ynoic acid] | 1 to 50 nM |
| CC#C[C@@H](CC(=O)O)c1ccc(OCc2ccc3c(C)n(CC(C)C)nc3c2)cc1 [Example 179, (S)-3-[4-(2-isobutyl-3-methyl-2H-indazol-6-ylmethoxy)-phenyl]-hex-4-ynoic acid] | 1 to 50 nM |
| CC#C[C@@H](CC(=O)O)c1ccc(OCc2ccc3c(F)nn(CC)c3c2C)cc1 [Example 214, (S)-3-[4-(1-ethyl-3-fluoro-7-methyl-1H-indazol-6-ylmethoxy)-phenyl]-hex-4-ynoic acid] | 2 nM |
| O=C(O)CCc1ccc(NCc2ccc3ccn(-c4ccc(F)cc4)c3c2Cl)cc1 [Example 9, 3-(4-{[7-chloro-1-(4-fluoro-phenyl)-1H-indol-6-ylmethyl]-amino}-phenyl)-propanoic acid] | 300 nM |
| CC#C[C@@H](CC(=O)O)c1ccc(OCc2cc3c(ccn3Cc3ccccc3)cc2F)cc1 [Example 41, (S)-3-[4-(1-benzyl-5-fluoro-1H-indol-6-ylmethoxy)-phenyl]-hex-4-ynoic acid] | 1 to 50 nM |
| CC#C[C@@H](CC(=O)O)c1ccc(OCc2ccc3c(cnn3CCc3ccccc3)c2)cc1 [Example 134, (S)-3-[4-(1-phenethyl-1H-indazol-5-ylmethoxy)-phenyl]-hex-4-ynoic acid] | 4 nM |
| CC#C[C@@H](CC(=O)O)c1ccc(OCc2ccc3ccn(Cc4cnc(C)cn4)c3c2C)cc1 [Example 44, (S)-3-{4-[7-methyl-1-(5-methyl-pyrazin-2-ylmethyl)-1H-indol-6-ylmethoxy]-phenyl}-hex-4-ynoic acid] | 1 to 50 nM |
| CC#C[C@@H](CC(=O)O)c1ccc(OCc2ccc3c(cnn3CC(C)C)c2)cc1 [Example 132, (S)-3-[4-(1-isobutyl-1H-indazol-5-ylmethoxy)-phenyl]-hex-4-ynoic acid] | 1 to 50 nM |
| CC#C[C@@H](CC(=O)O)c1ccc(OCc2ccc(C)c3c2c(F)nn3CC(C)C)cc1 [Example 213, (S)-3-[4-(3-fluoro-1-isobutyl-7-methyl-1H-indazol-4-ylmethoxy)-phenyl]-hex-4-ynoic acid] | 1 to 50 nM |
| O=C(O)CCc1ccc(OCc2ccc3ccn(-c4ccsc4)c3c2)cc1 [Example 13, 3-[4-(1-thiophen-3-yl-1H-indol-6-ylmethoxy)-phenyl]-propanoic acid] | 20 nM |
| CC#C[C@@H](CC(=O)O)c1ccc(OCc2cc(C)c3c(cnn3Cc3ccccc3)c2)cc1 [Example 126, (S)-3-[4-(1-benzyl-7-methyl-1H-indazol-5-ylmethoxy)-phenyl]-hex-4-ynoic acid] | 1 to 50 nM |
| CC#C[C@@H](CC(=O)O)c1ccc(OCc2ccc3c(cnn3CC3CCCCC3)c2)cc1 [Example 138, (S)-3-[4-(1-cyclohexylmethyl-1H-indazol-5-ylmethoxy)-phenyl]-hex-4-ynoic acid] | 10 nM |
| CC#C[C@@H](CC(=O)O)c1ccc(OCc2cnc3c(cnn3CC(C)C)c2)cc1 [Example 156, (S)-3-[4-(1-isobutyl-1H-pyrazolo[3,4-b]pyridin-5-ylmethoxy)-phenyl]-hex-4-ynoic acid] | 20 nM |
| O=C(O)CCc1ccc(NCc2ccc3ccn(Cc4ccccc4)c3c2)cc1 [Example 2, 3-{4-[(1-benzyl-1H-indol-6-ylmethyl)-amino]-phenyl}-propanoic acid] | 30 nM |
| O=C(O)CCc1ccc(OCc2ccc3ccn(Cc4ccccc4)c3c2Cl)cc1 [Example 18, 3-[4-(1-benzyl-7-chloro-1H-indol-6-ylmethoxy)-phenyl]-propanoic acid] | 90 nM |
| Cc1cc(F)ccc1-n1ccc2ccc(COc3ccc(CCC(=O)O)cc3)cc21 [Example 17, 3-{4-[1-(4-fluoro-2-methyl-phenyl)-1H-indol-6-ylmethoxy]-phenyl}-propanoic acid] | 7 nM |
| CC#C[C@@H](CC(=O)O)c1ccc(OCc2cccc3c2cnn3Cc2ccc(F)cc2)cc1 [Example 71, (S)-3-{4-[1-(4-fluoro-benzyl)-1H-indazol-4-ylmethoxy]-phenyl}-hex-4-ynoic acid] | 20 nM |

| SMILES | EC50 |
| --- | --- |
| CC#C[C@@H](CC(=O)O)c1ccc(OCc2ccc3onc(CC(C)C)c3c2)cc1 [Example 181, (S)-3-[4-(3-isobutyl-benzo[d]isoxazol-5-ylmethoxy)-phenyl]-hex-4-ynoic acid] | 6 nM |
| CC(CC(=O)O)c1ccc(OCc2ccc3cnn(Cc4ccccc4)c3c2)cc1 (stereo not shown) [Example 117, 3-[4-(1-benzyl-1H-indazol-6-ylmethoxy)-phenyl]-butyric acid] | 50 nM |
| CC#C[C@@H](CC(=O)O)c1ccc(OCc2cc(C)c3c(cnn3CC3CCCC3)c2)cc1 [Example 169, (S)-3-[4-(1-cyclopentylmethyl-7-methyl-1H-indazol-5-ylmethoxy)-phenyl]-hex-4-ynoic acid] | 1 to 50 nM |
| CC#C[C@@H](CC(=O)O)c1ccc(OCc2cccc3c2cnn3C(C)C)cc1 [Example 190, (S)-3-[4-(1-isopropyl-1H-indazol-4-ylmethoxy)-phenyl]-hex-4-ynoic acid] | 40 nM |
| CC#C[C@@H](CC(=O)O)c1ccc(OCc2ccc3c(COC(C)C)nn(CC(C)C)c3c2)cc1 [Example 193, (S)-3-[4-(1-isobutyl-3-isopropoxymethyl-1H-indazol-6-ylmethoxy)-phenyl]-hex-4-ynoic acid] | 3 nM |
| CC#C[C@@H](CC(=O)O)c1ccc(OCc2cccc3c(CCCC)nn(C)c23)cc1 [Example 206, (S)-3-[4-(3-butyl-1-methyl-1H-indazol-7-ylmethoxy)-phenyl]-hex-4-ynoic acid] | 1 to 50 nM |
| Cc1c(COc2ccc([C@H](CC(=O)O)c3ccon3)cc2)ccc2ccn(Cc3cnccn3)c12 [Example 89, (S)-3-isoxazol-3-yl-3-[4-(7-methyl-1-pyrazin-2-ylmethyl-1H-indol-6-ylmethoxy)-phenyl]-propanoic acid] | 30 nM |
| CC#C[C@@H](CC(=O)O)c1ccc(OCc2ccc3cn(Cc4ccccc4)nc3c2)cc1 [Example 58, (S)-3-[4-(2-benzyl-2H-indazol-6-ylmethoxy)-phenyl]-hex-4-ynoic acid] | 1 to 50 nM |
| O=C(O)CC1CCOc2cc(OCc3ccc4c(cnn4Cc4cccnc4)c3)ccc21 (stereo not shown) [Example 148, [7-(1-pyridin-3-ylmethyl-1H-indazol-5-ylmethoxy)-chroman-4-yl]-acetic acid] | ≥ 500 nM |
| CCOCCn1ncc2cc(COc3ccc4c(c3)OCCC4CC(=O)O)ccc21 (stereo not shown) [Example 149, {7-[1-(2-ethoxy-ethyl)-1H-indazol-5-ylmethoxy]-chroman-4-yl}-acetic acid] | ≥ 500 nM |
| CC#C[C@@H](CC(=O)O)c1ccc(OCc2ccc3ccn(Cc4c(F)cccc4F)c3c2C)cc1 [Example 33, (S)-3-{4-[1-(2,6-difluoro-benzyl)-7-methyl-1H-indol-6-ylmethoxy]-phenyl}-hex-4-ynoic acid] | 20 nM |
| CC#C[C@@H](CC(=O)O)c1ccc(OCc2ccc3c(CN4CCC(F)(F)C4)cn(CC(C)C)c3n2)cc1 [Example 231, (S)-3-{4-[3-(3,3-difluoro-pyrrolidin-1-ylmethyl)-1-isobutyl-1H-pyrrolo[2,3-b]pyridin-6-ylmethoxy]-phenyl}-hex-4-ynoic acid] | 1 to 50 nM |
| CC#C[C@@H](CC(=O)O)c1ccc(OCc2ccc3nn(CCOCC)cc3c2)cc1 [Example 160, (S)-3-{4-[2-(2-ethoxy-ethyl)-2H-indazol-5-ylmethoxy]-phenyl}-hex-4-ynoic acid] | 50 to 500 nM |
| CC#C[C@@H](CC(=O)O)c1ccc(OCc2ccc3c(CN4CCCC(F)(F)C4)nn(CC(C)C)c3c2C)cc1 [Example 227, (S)-3-{4-[3-(3,3-difluoro-piperidin-1-ylmethyl)-1-isobutyl-7-methyl-1H-indazol-6-ylmethoxy]-phenyl}-hex-4-ynoic acid] | 5 nM |
| CC#C[C@@H](CC(=O)O)c1ccc(OCc2ccc3ccn(Cc4cnccn4)c3c2C)cc1 [Example 60, (S)-3-[4-(7-methyl-1-pyrazin-2-ylmethyl-1H-indol-6-ylmethoxy)-phenyl]-hex-4-ynoic acid] | 1 to 50 nM |
| CC#C[C@@H](CC(=O)O)c1ccc(OCc2ccc3c(cnn3CCOC)c2)cc1 [Example 175, (S)-3-{4-[1-(2-methoxy-ethyl)-1H-indazol-5-ylmethoxy]-phenyl}-hex-4-ynoic acid] | 50 to 500 nM |
| CC#C[C@@H](CC(=O)O)c1ccc(OCc2cccc3c2c(F)nn3CC(C)C)cc1 [Example 189, (S)-3-[4-(3-fluoro-1-isobutyl-1H-indazol-4-ylmethoxy)-phenyl]-hex-4-ynoic acid] | 1 to 50 nM |
